Assays:
60 cancer cell lines = assay: NCI 60-cell screen, SRB, whole panel (mean, delta, range); format: cell-based; conditions: 10^−5 molar, 48 hours, SRB; for Growth percent, Delta: delta over the cell panel; for Growth percent, Range: range over the cell panel

Compound | melting point | Growth percent, Delta (60 cancer cell lines) [%] | Growth percent, Range (60 cancer cell lines) [%]
O=C(O)c1c(Sc2ccc(Cl)cc2)c(O)nc2ccccc12 [Compound 2, 3-((4-Chlorophenyl)thio)-2-hydroxyquinoline-4-carboxylic acid] | 306 to 308 °C | 33.20 | 55.29
O=c1c2cc(Cl)ccc2sc2c(O)nc3ccccc3c12 [Compound 4, 10-Chloro-6-hydroxy-12H-thiochromeno[2,3-c]quinolin-12-one] | > 410 °C | 30.54 | 50.31
CN(C)c1nc2ccccc2c2c(=O)c3cc(Cl)ccc3sc12 [Compound 6, 10-Chloro-6-dimethylamino-12H-thiochromeno[2,3-c]quinolin-12-one] | 194 to 195 °C | 65.30 | 93.93
CN1CCN(c2nc3ccccc3c3c(=O)c4cc(Cl)ccc4sc23)CC1 [Compound 8, 10-Chloro-6-(4-methylpiperazin-1-yl)-12H-thiochromeno[2,3-c]quinolin-12-one] | 212 to 214 °C | 68.64 | 92.74
CCN1CCN(c2nc3ccccc3c3c(=O)c4cc(Cl)ccc4sc23)CC1 [Compound 9, 10-Chloro-6-(4-ethylpiperazin-1-yl)-12H-thiochromeno[2,3-c]quinolin-12-one] | 196 to 198 °C |  | 
O=c1c2cc(Cl)ccc2sc2c(N3CCN(CCO)CC3)nc3ccccc3c12 [Compound 10, 10-Chloro-6-(4-(2-hydroxyethyl)piperazin-1-yl)-12H-thiochromeno[2,3-c]quinolin-12one] | 211 to 213 °C | 48.59 | 83.73
O=c1c2cc(Cl)ccc2sc2c(N3CCN(c4ccccc4)CC3)nc3ccccc3c12 [Compound 12, 10-Chloro-6-(4-phenylpiperazin-1-yl)-12H-thiochromeno[2,3-c]quinolin-12-one] | 236 to 237 °C | 35.45 | 60.10
O=c1c2cc(Cl)ccc2sc2c(N3CCOCC3)nc3ccccc3c12 [Compound 13, 10-Chloro-6-morpholino-12H-thiochromeno[2,3-c]quinolin-12-one] | 217 to 218 °C | 50.85 | 79.17
O=c1c2cc(Cl)ccc2sc2c(N3CCSCC3)nc3ccccc3c12 [Compound 14, 10-Chloro-6-thiomorpholino-12H-thiochromeno[2,3-c]quinolin-12-one] | 219 to 220 °C |  | 
O=c1c2cc(Cl)ccc2sc2c(N3CCCCC3)nc3ccccc3c12 [Compound 15, 10-Chloro-6-(piperidin-1-yl)-12H-thiochromeno[2,3-c]quinolin-12-one] | 187 to 188 °C |  | 
O=c1c2cc(Cl)ccc2sc2c(N3CCC(O)CC3)nc3ccccc3c12 [Compound 16, 10-Chloro-6-(4-hydroxypiperidin-1-yl)-12H-thiochromeno[2,3-c]quinolin-12-one] | 224 to 225 °C |  | 
O=c1c2cc(Cl)ccc2sc2c(N3CCC(Cc4ccccc4)CC3)nc3ccccc3c12 [Compound 17, 6-(4-Benzylpiperidin-1-yl)-10-chloro-12H-thiochromeno[2,3-c]quinolin-12-one] | 184 to 185 °C |  | 
O=c1c2cc(Cl)ccc2sc2c(N3CCC(N4CCCCC4)CC3)nc3ccccc3c12 [Compound 18, 6-([1,4′-Bipiperidin]-1′-yl)-10-chloro-12H-thiochromeno[2,3-c]quinolin-12-one] | 187 to 189 °C |  | 
O=c1c2cc(Cl)ccc2sc2c(N3CCC(CCCC4CCNCC4)CC3)nc3ccccc3c12 [Compound 19, 10-Chloro-6-(4-(3-(piperidin-4-yl)propyl)piperidin-1-yl)-12H-thiochromeno[2,3-c]quinolin-12-one] | 164 to 165 °C |  | 
O=c1c2cc(Cl)ccc2sc2c(N3CCCC3)nc3ccccc3c12 [Compound 20, 10-Chloro-6-(pyrrolidin-1-yl)-12H-thiochromeno[2,3-c]quinolin-12-one] | 170 to 171 °C |  | 
O=C1CCCCN1c1nc2ccccc2c2c(=O)c3cc(Cl)ccc3sc12 [Compound 21, 10-chloro-6-(2-oxopiperidin-1-yl)-12H-thiochromeno[2,3-c]quinolin-12-one] | 258 to 261 °C |  | 

Now from value to molecule, other results behind:

melting point | Compound | Growth percent, Delta (60 cancer cell lines) [%] | Growth percent, Range (60 cancer cell lines) [%]
178 to 179 °C | CCCNc1nc2ccccc2c2c(=O)c3cc(Cl)ccc3sc12 [Compound N3, 10-Chloro-6-propylamino-12H-thiochromeno[2,3-c]quinolin-12-one] |  | 
147 to 149 °C | CCCCNc1nc2ccccc2c2c(=O)c3cc(Cl)ccc3sc12 [Compound N4, 6-(Butylamino)-10-chloro-12H-thiochromeno[2,3-c]quinolin-12-one] |  | 
159 to 160 °C | CC(C)CNc1nc2ccccc2c2c(=O)c3cc(Cl)ccc3sc12 [Compound N5, 10-Chloro-6-isobutylamino-12H-thiochromeno[2,3-c]quinolin-12-one] |  | 
251 to 252 °C | O=c1c2cc(Cl)ccc2sc2c(NC3Cc4ccccc4C3)nc3ccccc3c12 [Compound N20, 10-Chloro-6-((2,3-dihydro-1H-inden-2-yl)amino)-12H-thiochromeno[2,3-c]quinolin-12-one] |  | 
194 to 196 °C | O=c1c2cc(Cl)ccc2sc2c(NC3CCN(Cc4ccccc4)CC3)nc3ccccc3c12 [Compound N22, 6-((1-Benzylpiperidin-4-yl)amino)-10-chloro-12H-thiochromeno[2,3-c]quinolin-12-one] |  | 
178 to 180 °C | O=c1c2cc(Cl)ccc2sc2c(NCc3cccs3)nc3ccccc3c12 [Compound N23, 10-Chloro-6-((thiophen-2-ylmethyl)amino)-12H-thiochromeno[2,3-c]quinolin-12-one] |  | 
165 to 166 °C | O=c1c2cc(Cl)ccc2sc2c(NCC3CCCCC3)nc3ccccc3c12 [Compound N24, 10-Chloro-6-((cyclohexylmethyl)amino)-12H-thiochromeno[2,3-c]quinolin-12-one] |  | 
187 to 189 °C | O=c1c2cc(Cl)ccc2sc2c(NCc3ccccn3)nc3ccccc3c12 [Compound N26, 10-Chloro-6-((pyridin-2-ylmethyl)amino)-12H-thiochromeno[2,3-c]quinolin-12-one] |  | 
223 to 224 °C | COc1ccccc1CNc1nc2ccccc2c2c(=O)c3cc(Cl)ccc3sc12 [Compound N28, 10-Chloro-6-((2-methoxybenzyl)amino)-12H-thiochromeno[2,3-c]quinolin-12-one] |  | 
251 to 252 °C | COc1ccc(CNc2nc3ccccc3c3c(=O)c4cc(Cl)ccc4sc23)cc1OC [Compound N29, 10-Chloro-6-((3,4-dimethoxybenzyl)amino)-12H-thiochromeno[2,3-c]quinolin-12-one] |  | 
370 °C (dec.) | NC(N)=Nc1nc2ccccc2c2c(=O)c3cc(Cl)ccc3sc12 [Compound N33, 2-(10-Chloro-12-oxo-12H-thiochromeno[2,3-c]quinolin-6-yl)guanidine] |  | 
180 to 181 °C | O=c1c2cc(Cl)ccc2sc2c(NN3CCCCC3)nc3ccccc3c12 [Compound N34, 10-Chloro-6-(piperidin-1-ylamino)-12H-thiochromeno[2,3-c]quinolin-12-one] |  | 

Source: patent US8927717B1, “Thiochromeno[2,3-c]quinolin-12-one derivatives, preparation method and application thereof” (National Defense Medical Center, priority 2014, dated 2015)
